The source of these data is patent US20260183405A1, “SMALL MOLECULE-DRUG-CONJUGATES CLEAVABLE IN A TUMOR MICROENVIRONMENT” (priority 2022, published 2026).

Read-outs that look alike come from different tables or passages of the source.

What all share (experiment): Cytotoxicity in vitro in the presence and absence of elastase (MTT assay)
Holding throughout (assay type): cell-based

The test system of assay [1] is 786-O. Conditions: 786-O cells, 72 h incubation. The protocol:
(§1) Cultivation of cells was performed according to standard procedures with the media recommended by the provider. The cells, in a total volume of 100 μL, were seeded in a 96-well plate with a white bottom (#3610). After a 24 h incubation period at 37° C. and 5% CO2, the medium was exchanged by adding 90 μL fresh medium. The treatment started by adding the test compound in 10 μL of culture medium to the cells in triplicates. Concentrations ranging from 10^−5 M to 10^−13 M were chosen. Two identically treated sets of samples were prepared. One set was treated with the test compound alone, whereas to the second set the compound and 10 nM elastase (NE) was added followed by a 72 h incubation period at 37° C. and 5% CO2. The proliferation was detected using the MTT assay (ATCC). At the end of the incubation period the MTT reagent was added to all samples for 4h. Lysis of the cells followed by addition of the detergent was done overnight. The formed dye was detected at 570 nm. The proliferation of untreated but otherwise identically handled cells was defined as the 100% value. The dose response curves allowed the determination of the respective IC50 values. […]

Assay [2] deals with HT29. The conditions noted are these: HT29 cells, 72 h incubation. The protocol:
as §1

For assay [3], the system named is NCI-H292. Conditions: NCI-H292 cells, 72 h incubation. The protocol: as §1
Assay [4] relates to SUM149PT. Conditions: SUM149PT cells, 72 h incubation. The protocol: as §1
Where [5] appears, read: compound alone, read-out: IC50 without neutrophil elastase.
Where [6] appears, read: with 10 nM elastase (NE), read-out: IC50 with neutrophil elastase.

Usually IC50 stands for the concentration that gives 50% inhibition.

Take `CC(C)[C@H](NC(=O)[C@@H]1CCCN1C(=O)[C@H](CC(=O)O)NC(=O)CCOCCOCCOCCNC(=O)CCC(=O)Nc1nnc(S(N)(=O)=O)s1)C(=O)N=[S@](C)(=O)Cc1cc2nc(c1)OCCCOc1cc(F)ccc1-c1cc(ncc1F)N2` (relative stereo) [Compound 10, sodium 1-{(2S)-2-(carboxylatomethyl)-4,17,20-trioxo-20-[(5-sulfamoyl-1,3,4-thiadiazol-2-yl)amino]-7,10,13-trioxa-3,16-diazaicosanan-1-oyl}-L-prolyl-N—[(R*)—{[15,19-difluoro-3,4-dihydro-2H,11H-10,6-(azeno)-12,16-(metheno)-1,5,11,13-benzodioxadiazacyclooctadecin-8-yl]methyl}(methyl)oxo-lambda6-sulfanylidene]-L-valinamide]: the concentration for half-maximal inhibition (IC50) in assay [1] (setting [5]) is more than 1 µM; in assay [1] (setting [6]), 0.001 to 0.0099 µM; in assay [2] (setting [5]), more than 1 µM; in assay [2] (setting [6]) it was 0.001 to 0.0099 µM; in assay [3] (setting [5]), 0.1 to 0.999 µM; in assay [3] (setting [6]), 0.001 to 0.0099 µM. Further, the IC50 lay in the range of 0.1 to 0.999 µM in assay [4] (setting [5]) and 0.001 to 0.0099 µM in assay [4] (setting [6]).
Regarding `CCCNC(=O)Nc1cccc(S(=O)(=O)Nc2cccc([C@@H](CC(=O)O)NC(=O)Nc3ccc(NC(=O)NCCOCCOCCOCCC(=O)N[C@@H](CCC(=O)NCCOCCOCCOCCC(=O)N[C@@H](CC(=O)O)C(=O)N4CCC[C@H]4C(=O)N[C@H](C(=O)O[C@]4(CC)C(=O)OCc5c4cc4n(c5=O)Cc5c-4nc4ccccc4c5CC)C(C)C)C(=O)NCCOCCOCCOCCC(=O)N[C@@H](CC(=O)O)C(=O)N4CCC[C@H]4C(=O)N[C@H](C(=O)O[C@]4(CC)C(=O)OCc5c4cc4n(c5=O)Cc5c-4nc4ccccc4c5CC)C(C)C)cc3)c2)c1` [Compound 3], the IC50 in assay [1] (setting [5]) was in the range of 0.1 to 0.999 µM; in assay [1] (setting [6]), 0.001 to 0.0099 µM; in assay [2] (setting [5]), 0.1 to 0.999 µM; in assay [2] (setting [6]), 0.001 to 0.0099 µM; in assay [3] (setting [5]), 0.1 to 0.999 µM; in assay [3] (setting [6]), 0.001 to 0.0099 µM. The IC50 lay in the range of 0.01 to 0.099 µM in assay [4] (setting [5]) and 0.001 to 0.0099 µM in assay [4] (setting [6]).
For `CCc1c2c(nc3ccccc13)-c1cc3c(c(=O)n1C2)COC(=O)[C@@]3(CC)OC(=O)[C@@H](NC(=O)[C@@H]1CCCN1C(=O)[C@H](CC(=O)O)NC(=O)CCOCCOCCOCCNC(=O)CCC(=O)Nc1nnc(S(N)(=O)=O)s1)C(C)C` [Compound 4, sodium (4S)-4,11-diethyl-3,14-dioxo-3,4,12,14-tetrahydro-1H-pyrano[3′,4′:6,7]indolizino[1,2-b]quinolin-4-yl 1-{(2S)-2-(carboxylatomethyl)-4,17,20-trioxo-20-[(5-sulfamoyl-1,3,4-thiadiazol-2-yl)amino]-7,10,13-trioxa-3,16-diazaicosanan-1-oyl}-L-prolyl-L-valinate], the half-inhibitory concentration (IC50) is 0.1 to 0.999 µM in assay [1] (setting [5]); 0.001 to 0.0099 µM in assay [1] (setting [6]); more than 1 µM in assay [2] (setting [5]); 0.01 to 0.099 µM in assay [2] (setting [6]); 0.1 to 0.999 µM in assay [3] (setting [5]); 0.001 to 0.0099 µM in assay [3] (setting [6]). The IC50 in assay [4] (setting [5]) lay within 0.1 to 0.999 µM; in assay [4] (setting [6]) it was 0.001 to 0.0099 µM.
